Test results as given in patent US8318769B2, “Substituted sulfonamide compounds” (Gruenethal GmbH, priority 2008, dated 2012).
Read-outs that look alike come from different tables or passages of the source.

Assays:
[1] = biological target: T1, human bradykinin 1 receptor (B1R) (Homo sapiens, UniProt P46663); assay: FLIPR Ca2+ assay, B1R antagonism, human; type: cell-based
T1 construct: expressed in transfected cells
T1 sequence (P46663 1-353): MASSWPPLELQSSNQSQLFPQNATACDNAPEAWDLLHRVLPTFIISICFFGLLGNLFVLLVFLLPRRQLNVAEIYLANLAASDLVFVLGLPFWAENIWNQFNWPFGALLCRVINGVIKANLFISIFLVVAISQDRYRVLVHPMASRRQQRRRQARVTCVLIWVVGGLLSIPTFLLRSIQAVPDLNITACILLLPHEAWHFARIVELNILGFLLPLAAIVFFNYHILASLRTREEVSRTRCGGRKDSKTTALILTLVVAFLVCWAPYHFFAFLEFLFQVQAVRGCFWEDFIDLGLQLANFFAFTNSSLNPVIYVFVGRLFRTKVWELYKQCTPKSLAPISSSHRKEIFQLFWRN
Procedure: The agonistic or antagonistic action of substances can be quantified on the bradykinin 1 receptor (B1R) of the human and rat species with ectopically expressing cell lines (CHO K1 cells) and with the aid of a Ca^2+-sensitive dyestuff (Fluo-4) in a fluorescent imaging plate reader (FLIPR). The figure in % activation is based on the Ca^2+ signal after addition of Lys-Des-Arg^9-bradykinin (0.5 nM) or Des-Arg^9-bradykinin (100 nM). Antagonists lead to a suppression of the Ca^2+ inflow after addition of the agonist. % inhibition compared with the maximum achievable inhibition is stated.
The agonistic or antagonistic action of substances can be determined on the bradykinin 1 receptor (B1R) of the human and rat species with the following assay. In accordance with this assay, the Ca^2+ inflow through the channel is quantified with the aid of a Ca^2+-sensitive dyestuff (type Fluo-4, Molecular Probes Europe BV, Leiden, Holland) in a fluorescent imaging plate reader (FLIPR, Molecular Devices, Sunnyvale, USA).
Chinese hamster ovary cells (CHO K1 cells) transfected stably with the human B1R gene (hB1R cells) or the B1R gene of the rat (rB1R cells) are used. For functional studies, these cells are plated out on black 96-well plates with a clear base (BD Biosciences, Heidelberg, Germany or Greiner, Frickenhausen, Germany) in a density of 20,000-35,000 cells/well. The cells are left overnight at 37° C. and 5% CO2 in culture medium (hB1R cells: Nutrient Mixture Ham's F12, Gibco Invitrogen GmbH, Karlsruhe, Germany or DMEM, Sigma-Aldrich, Taufkirchen, Germany; rB1R cells: D-MEM/F12, Gibco Invitrogen GmbH, Karlsruhe, Germany) with 10 vol. % FBS (foetal bovine serum, Gibco Invitrogen GmbH, Karlsruhe, Germany or PAN Biotech GmbH, Aidenbach, Germany).
On the following day, the cells are loaded for 60 min at 37° C. with 2.13 μM Fluo-4 (Molecular Probes Europe BV, Leiden, Holland) in HBSS buffer (Hank's buffered saline solution, Gibco Invitrogen GmbH, Karlsruhe, Germany) with 2.5 mM probenecid (Sigma-Aldrich, Taufkirchen, Germany) and 10 mM HEPES (Sigma-Aldrich, Taufkirchen, Germany). The plates are then washed 2× with HBSS buffer, and HBSS buffer which additionally contains 0.1% BSA (bovine serum albumin; Sigma-Aldrich, Taufkirchen, Germany), 5.6 mM glucose and 0.05% gelatine (Merck KGaA, Darmstadt, Germany) is added. After a further incubation of 20 minutes at room temperature, the plates are inserted into the FLIPR for the Ca^2+ measurement.
Alternatively, the plates are washed with buffer A (15 mM HEPES, 80 mM NaCl, 5 mM KCl, 1.2 mM CaCl2, 0.7 mM MgSO4, 2 g/l glucose, 2.5 mM probenecid), buffer A is added and the plates are loaded with 2.5 μM Fluo-4 and 0.025% Pluronic F127 (Sigma-Aldrich, Taufkirchen, Germany). Thereafter, the cells are washed 2× with buffer A and incubated for 30 minutes with buffer A, which additionally contains 0.05% BSA and 0.05% gelatine, at room temperature and thereafter inserted into the FLIPR for the Ca^2+ measurement.
The Ca^2+-dependent fluorescence is measured here before and after addition of substances (λex=488 nm, λem=540 nm). Quantification is by measurement of the highest fluorescence intensity (FC, fluorescence counts) over time.
The FLIPR protocol consists of 2 additions of substance. Test substances (10 μM) are first pipetted on to the cells and the Ca^2+ inflow is compared with the control (hB1R: Lys-Des-Arg^9-bradykinin >=50 nM; rB1R: Des-Arg^9-bradykinin 10 μM). This gives the figure in % activation based on the Ca^2+ signal after addition of Lys-Des-Arg^9-bradykinin (>=50 nM) or Des-Arg^9-bradykinin (10 μM).
After incubation for 10-20 minutes, Lys-Des-Arg^9-bradykinin (hB1R) or Des-Arg^9-bradykinin (rB1R) in the concentration of the EC80 is applied and the inflow of Ca^2+ is likewise determined. Antagonists lead to a suppression of the Ca^2+ inflow. % inhibition compared with the maximum achievable inhibition is calculated. […]

[2] = biological target: T2, bradykinin 1 receptor (B1R) of the rat (Rattus norvegicus, UniProt P97583); assay: FLIPR Ca2+ assay, B1R antagonism, rat; type: cell-based; conditions: for B1R antagonism, rat [10 μM] % inhibition: 10 μM test substance
T2 construct: expressed in transfected cells
T2 sequence (P97583 1-337): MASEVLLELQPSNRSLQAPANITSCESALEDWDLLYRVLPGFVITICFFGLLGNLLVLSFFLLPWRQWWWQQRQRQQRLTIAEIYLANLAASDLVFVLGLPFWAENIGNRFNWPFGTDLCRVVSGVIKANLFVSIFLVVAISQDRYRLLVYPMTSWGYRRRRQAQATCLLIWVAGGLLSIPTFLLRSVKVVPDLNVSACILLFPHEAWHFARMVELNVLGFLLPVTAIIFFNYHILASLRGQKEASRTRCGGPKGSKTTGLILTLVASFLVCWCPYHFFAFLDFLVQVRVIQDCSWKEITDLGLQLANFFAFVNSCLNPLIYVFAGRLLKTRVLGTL
How it was run: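 Antagonism is given as % of maximum achievable suppression of agonist-evoked Ca2+ influx, measured by Fluo-4 peak fluorescence in FLIPR. Stable hB1R or rB1R CHO K1 lines received 10 μM compound for 10-20 min before EC80 Lys-Des-Arg9-bradykinin (human) or Des-Arg9-bradykinin (rat).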

[3] = 10 μM test substance, CHO K1 cells with human B1R gene (hB1R cells), Lys-Des-Arg9-bradykinin at EC80, % inhibition compared with the maximum achievable inhibition, read-out: B1R antagonism, human [10 μM] % inhibition
[4] = CHO-K1, 10 μM test substance, CHO K1 cells with rat B1R gene (rB1R cells), Des-Arg9-bradykinin at EC80, % inhibition compared with the maximum achievable inhibition, read-out: B1R antagonism, rat [10 μM] % inhibition
[5] = 10 μM test substance, CHO K1 cells with human B1R gene (hB1R cells), Lys-Des-Arg9-bradykinin at EC80, % inhibition compared with the maximum achievable inhibition

Compound | inhibition at 10 µM [1, 3] [%] | inhibition at 10 µM [2, 4] [%] | other results
CN1CCN(CCCOC2(c3cccnc3)CCN(C(=O)CC(NS(=O)(=O)c3ccc4ccccc4c3)c3ccccc3)CC2)CC1 (centres unmarked) [Example 39, N-(3-(4-(3-(4-methylpiperazin-1-yl)propoxy)-4-(pyridin-3-yl)piperidin-1-yl)-3-oxo-1-phenylpropyl)naphthalene-2-sulfonamide] | 50 | 98 | –
O=C(COCCN(C(c1ccccc1)c1ccccc1)S(=O)(=O)c1ccc(Cl)cc1Cl)N1CCC(OCCN2CCCC2)(c2cccnc2)CC1 [Example 4, N-benzhydryl-2,4-dichloro-N-(2-(2-oxo-2-(4-(pyridin-3-yl)-4-(2-(pyrrolidin-1-yl)ethoxy)piperidin-1-yl)ethoxy)ethyl)benzenesulfonamide] | – | – | inhibition at 10 µM ([1]; CHO-K1, read-out: B1R antagonism, human [10 μM] % inhibition): 99%; inhibition at 10 µM ([2]; CHO-K1, read-out: B1R antagonism, rat [10 μM] % inhibition): 98%
COc1cc(C)c(S(=O)(=O)N(C)CCOCC(=O)N2CCC(OCCN3CCCC3)(c3cccc(F)c3)CC2)c(C)c1C [Example 114, N-[2-[2-[4-(3-fluorophenyl)-4-(2-pyrrolidin-1-yl-ethoxy)-piperidin-1-yl]-2-oxo-ethoxy]-ethyl]-4-methoxy-N,2,3,6-tetramethyl-benzenesulfonic acid amide] | 100 | 99 | –
O=C(COCC1CCc2ccccc2N1S(=O)(=O)c1ccc(Cl)c(Cl)c1)N1CCC(OCCCN2CCCC2)(c2cccnc2)CC1 (centres unmarked) [Example 45, 2-((1-(3,4-dichlorophenylsulfonyl)-1,2,3,4-tetrahydroquinolin-2-yl)methoxy)-1-(4-(pyridin-3-yl)-4-(3-(pyrrolidin-1-yl)propoxy)piperidin-1-yl)ethanone] | 76 | 103 | –
COc1cc(C)c(S(=O)(=O)N2c3ccccc3CCC2COCC(=O)N2CCC(OCCN3CCCC3)(c3cccnc3)CC2)c(C)c1 (centres unmarked) [Example 101, 2-[[1-[(4-methoxy-2,6-dimethyl-phenyl)sulfonyl]-1,2,3,4-tetrahydro-quinolin-2-yl]-methoxy]-1-[4-pyridin-3-yl-4-(2-pyrrolidin-1-yl-ethoxy)-piperidin-1-yl]-ethanone] | 100 | 102 | –
O=C(CC(NS(=O)(=O)c1ccc2ccccc2c1)c1ccccc1)N1CCC(OCCCN2CCCCC2)(c2cccnc2)CC1 (centres unmarked) [Example 27, N-(3-oxo-1-phenyl-3-(4-(3-(piperidin-1-yl)propoxy)-4-(pyridin-3-yl)piperidin-1-yl)propyl)naphthalene-2-sulfonamide] | 83 | 101 | –
3-[[1-[(4-methoxy-2,6-dimethyl-phenyl)sulfonyl]-piperidin-2-yl]-methoxy]-1-[4-pyridin-3-yl-4-(2-pyrrolidin-1-yl-ethoxy)-piperidin-1-yl]-propan-1-one [Example 120] | – | – | B1R antagonism, human [10 μM] % inhibition [1, 5]: 100%; B1R antagonism, rat [10 μM] % inhibition ([2]; CHO K1 cells with rat B1R gene (rB1R cells), Des-Arg9-bradykinin at EC80, % inhibition compared with the maximum achievable inhibition): 103%
O=C(COCC1CCCCN1S(=O)(=O)c1ccccc1C(F)(F)F)N1CCC(OCCN2CCCC2)(c2cccnc2)CC1 (centres unmarked) [Example 117, 1-[4-pyridin-3-yl-4-(2-pyrrolidin-1-yl-ethoxy)-piperidin-1-yl]-2-[[1-[[2-(trifluoromethyl)-phenyl]sulfonyl]-piperidin-2-yl]-methoxy]-ethanone] | – | – | B1R antagonism, human [10 μM] % inhibition [1, 5]: 100%; B1R antagonism, rat [10 μM] % inhibition ([2]; CHO K1 cells with rat B1R gene (rB1R cells), Des-Arg9-bradykinin at EC80, % inhibition compared with the maximum achievable inhibition, 10 µM): 103%
Cc1cccc(Cl)c1S(=O)(=O)N1CCCCC1CCCC(=O)N1CCC(OCCN2CCCC2)(c2cccc(F)c2)CC1 (centres unmarked) [Example 85, 4-[1-[(2-chloro-6-methyl-phenyl)sulfonyl]-piperidin-2-yl]-1-[4-(3-fluorophenyl)-4-(2-pyrrolidin-1-yl-ethoxy)-piperidin-1-yl]-butan-1-one] | 100 | 98 | –
Cc1cc(S(=O)(=O)N2CCCCC2CCC(=O)N2CCC(OCCN3CCCC3)(c3cccnc3)CC2)c(C)cc1Cl (centres unmarked) [Example 25, 3-(1-(4-chloro-2,5-dimethylphenylsulfonyl)piperidin-2-yl)-1-(4-(pyridin-3-yl)-4-(2-(pyrrolidin-1-yl)ethoxy)piperidin-1-yl)propan-1-one] | 86 | 72 | –
